# Molecular target: CDK2 (human) (UniProt P24941)
# Test: Enzyme Assay
row,Compound,Ki [nM]
1,CC1CCN(c2nc(Nc3n[nH]c4ccccc34)nc(-c3cc4c(=O)[nH][nH]c4cc3C(F)(F)F)n2)C1 (configuration not stated),< 1000
2,Cc1cc(Nc2ccnc(Nc3ccc4c(=O)[nH][nH]c4c3)c2)n[nH]1,< 1000
3,Cc1cnc(NC(=O)CC(=O)Nc2ccc3c(=O)[nH][nH]c3c2)s1,< 1000
4,O=c1[nH][nH]c2cc(Nc3nc(Nc4cc(C5CC5)[nH]n4)c4ccccc4n3)ccc12,< 1000
5,Cc1cnc(NOCCOc2ccc3c(=O)[nH][nH]c3c2)s1,< 1000
6,CSc1n[nH]c(Nc2nc(Nc3ccc4c(=O)[nH][nH]c4c3)ccc2[N+](=O)[O-])n1,< 1000
7,COC(C)(C)c1cc(Nc2cc(C3CC3)[nH]n2)nc(Sc2ccc3c(=O)[nH][nH]c3c2)n1,< 1000
8,CN(C)CCNC(=O)c1cc(Nc2n[nH]c3ccccc23)nc(Sc2ccc3c(=O)[nH][nH]c3c2)n1,< 1000
9,O=c1[nH][nH]c2cc(OC3CCCC(Nc4nccnn4)C3)ccc12 (configuration not stated),< 1000
10,Cc1cnc(NOCCNc2ccc3c(=O)[nH][nH]c3c2)s1,< 1000
11,O=c1[nH][nH]c2cc(Oc3nc(Nc4cc(C5CC5)[nH]n4)cc(-c4ccccc4)n3)ccc12,< 1000
12,O=c1[nH][nH]c2cc(Nc3nc(Nc4cc(C5CC5)[nH]n4)ccc3[N+](=O)[O-])ccc12,< 1000
13,Cn1cnc(NC(=O)CC(=O)Oc2ccc3c(=O)[nH][nH]c3c2)c1,< 1000
14,Cc1cc(Nc2cccc(NCc3ccc4c(=O)[nH][nH]c4c3)n2)n[nH]1,< 1000
15,Cc1cc(Nc2cc(-c3ccco3)[nH]n2)nc(Nc2ccc3c(=O)[nH][nH]c3c2)n1,< 1000
16,O=c1[nH][nH]c2cc(SCC3CCCC3Nc3nccnn3)ccc12 (configuration not stated),< 1000
17,Cc1cc(Nc2nc(Nc3ccc4c(=O)[nH][nH]c4c3)nc3cccc(C)c23)n[nH]1,< 1000
18,Cc1cc(Nc2nc(Nc3ccc4c(=O)[nH][nH]c4c3)nc3c2CCNC3)n[nH]1,< 1000
19,O=c1[nH][nH]c2cc(Nc3cccc(Nc4cc(C5CC5)[nH]n4)n3)ccc12,< 1000
20,O=c1[nH][nH]c2cc(CCCCNc3cc(C4CC4)[nH]n3)ccc12,< 1000
21,O=c1[nH][nH]c2cc(SCCCNc3nccnn3)ccc12,< 1000
22,O=c1[nH][nH]c2cc(CCC3CCCC3Nc3nccnn3)ccc12 (configuration not stated),< 1000
23,O=c1[nH][nH]c2cc(SC(CCNc3ccccn3)Cc3ccccc3)ccc12 (configuration not stated),< 1000
24,Cc1cc(Nc2cc(-c3c(C)cccc3C)nc(Sc3ccc4c(=O)[nH][nH]c4c3)n2)n[nH]1,< 1000
25,Cn1cnc(Nc2cccc(Nc3ccc4c(=O)[nH][nH]c4c3)c2)c1,< 1000

row,Compound,Ki [nM]
1,Nc1c(Nc2ccc3c(=O)[nH][nH]c3c2)ncnc1Nc1cc(C2CC2)[nH]n1,< 1000
2,Cc1cc(Nc2nc(Sc3ccc4c(=O)[nH][nH]c4c3)nc3cc(O)ccc23)n[nH]1,< 1000
3,Cc1nc(Sc2ccc3c(=O)[nH][nH]c3c2)nc(Nc2cc(C3CC3)[nH]n2)c1C,< 1000
4,O=C(CCNc1cc(C2CC2)[nH]n1)Cc1ccc2c(=O)[nH][nH]c2c1,< 1000
5,Cc1c(Nc2n[nH]c3ccccc23)nc(-c2cc3c(=O)[nH][nH]c3cc2Cl)nc1N1CCOCC1,< 1000
6,Cn1cnc(NCCC(Cc2ccccc2)Oc2ccc3c(=O)[nH][nH]c3c2)c1 (configuration not stated),< 1000
7,Cc1cc(Nc2nc(NCc3ccc4c(=O)[nH][nH]c4c3)cc3ccccc23)n[nH]1,< 1000
8,O=c1[nH][nH]c2cc([C@@H]3C[C@H]3c3nc(Nc4n[nH]c5ccc(F)cc45)c4ccccc4n3)ccc12,< 1000
9,Cc1cc(Nc2cc(-c3ccccc3C)nc(Oc3ccc4c(=O)[nH][nH]c4c3)n2)n[nH]1,< 1000
10,O=c1[nH][nH]c2cc(Nc3nc(Nc4cc(C5CC5)[nH]n4)cc(-c4ccccc4Cl)n3)ccc12,< 1000
11,Cc1cnc(NC(CCOc2ccc3c(=O)[nH][nH]c3c2)c2ccccc2)s1 (configuration not stated),< 1000
12,Cc1nc(Nc2ccc3c(=O)[nH][nH]c3c2)nc(Nc2cc(C3CC3)[nH]n2)n1,< 1000
13,O=c1[nH][nH]c2cc(C(F)(F)F)c(-c3cc(-c4ccncc4)nc(Nc4cc(C5CC5)[nH]n4)n3)cc12,< 1000
14,O=c1[nH][nH]c2ccc(CNc3cc(Nc4cc(C5CC5)[nH]n4)c4ccccc4n3)cc12,< 1000
15,O=c1[nH][nH]c2cc(NCCC(Nc3nccnn3)c3ccccc3)ccc12 (configuration not stated),< 1000
16,COCCNc1cc(Nc2cc(C)[nH]n2)nc(SCc2ccc3[nH][nH]c(=O)c3c2)n1,< 1000
17,CC(C)(C)OC(=O)n1[nH]c(=O)c2cc(Nc3nc(Nc4cc(C5CC5)[nH]n4)c4ccccc4n3)ccc21,< 1000
18,O=c1[nH][nH]c2cc(Oc3nc(Nc4cc(C5CC5)[nH]n4)cc(N4CCOCC4)n3)ccc12,< 1000
19,O=c1[nH][nH]c2cc(Sc3cccc(Nc4n[nH]c5ccccc45)n3)ccc12,< 1000
20,Cc1cc(Nc2ccnc(Oc3ccc4c(=O)[nH][nH]c4c3)c2)n[nH]1,< 1000
21,O=c1[nH][nH]c2ccc(-c3nc4c(c(Nc5n[nH]c6ccc(F)cc56)n3)CCC4)c(C(F)(F)F)c12,< 1000
22,O=c1[nH][nH]c2cc(CCC3CCC(Nc4nccnn4)C3)ccc12 (configuration not stated),< 1000
23,O=c1[nH][nH]c2cc(C3CC3C3COCC(Nc4nccnn4)C3)ccc12 (configuration not stated),< 1000
24,Cc1cnc(NC(=O)CCOc2ccc3c(=O)[nH][nH]c3c2)s1,< 1000
25,O=c1[nH][nH]c2cc(Oc3cccc(Nc4cc(C5CC5)[nH]n4)n3)ccc12,< 1000

# Now from value to compound:
row,Ki [nM],Compound
1,< 1000,O=c1[nH][nH]c2cc(OCCC(Nc3nccnn3)c3ccccc3)ccc12 (configuration not stated)
2,< 1000,O=c1[nH][nH]c2ccc(OCc3cc4ccccc4c(Nc4cc(C5CC5)[nH]n4)n3)cc12
3,< 1000,Cc1cnc(NC2CCCC2CNc2ccc3c(=O)[nH][nH]c3c2)s1 (configuration not stated)
4,< 1000,NCCOc1cc(Nc2n[nH]c3ccccc23)nc(-c2cc3c(=O)[nH][nH]c3cc2C(F)(F)F)c1
5,< 1000,O=c1[nH][nH]c2cc(Sc3nc(Nc4cc(C5CC5)[nH]n4)cc(N4CCOCC4)n3)ccc12
6,< 1000,Cc1cc(Nc2cc(Nc3ccc4c(=O)[nH][nH]c4c3)nc3ccccc23)n[nH]1
7,< 1000,COc1ccc(-c2cc(Nc3cc(C)[nH]n3)nc(Sc3ccc4c(=O)[nH][nH]c4c3)n2)cc1
8,< 1000,Cc1cc(Nc2cc(-c3ccccc3)[nH]n2)nc(-c2ccc3[nH][nH]c(=O)c3c2)n1
9,< 1000,Cc1cc(Nc2ccnc(Cc3ccc4c(=O)[nH][nH]c4c3)c2)n[nH]1
10,< 1000,O=c1[nH][nH]c2cc(C(F)(F)F)c(-c3nc(Nc4n[nH]c5ccccc45)nc(N4CCSCC4)n3)cc12
11,< 1000,Cc1cc(Nc2nc(-c3cc4c(=O)[nH][nH]c4cc3C(F)(F)F)nc3cnoc23)n[nH]1
12,< 1000,O=c1[nH][nH]c2ccc(-c3cnnc(Nc4cc(C5CC5)[nH]n4)c3)cc12
13,< 1000,O=c1[nH][nH]c2cc(NCCONc3cc(C4CC4)[nH]n3)ccc12
14,< 1000,Cc1cc(Nc2nc(COc3ccc4c(=O)[nH][nH]c4c3)nc3c2CN(Cc2ccccc2)CC3)n[nH]1
15,< 1000,O=c1[nH][nH]c2cc(Cl)c(-c3cc4ncccc4c(Nc4n[nH]c5ccccc45)n3)cc12
16,< 1000,O=c1[nH][nH]c2ccc(C3COCC(Nc4cc(C5CC5)[nH]n4)C3)cc12 (configuration not stated)
17,< 1000,O=c1[nH][nH]c2cc(CC3COCC(Nc4cc(C5CC5)[nH]n4)C3)ccc12 (configuration not stated)
18,< 1000,Cc1cnc(NCCCSc2ccc3c(=O)[nH][nH]c3c2)s1
19,< 1000,NC1CCCCC1c1cc(Nc2n[nH]c3ccccc23)nc(-c2ccc3[nH][nH]c(=O)c3c2C(F)(F)F)n1 (configuration not stated)
20,< 1000,O=c1[nH][nH]c2cc(COCc3nc(Nc4cc(C5CC5)[nH]n4)c4ccccc4n3)ccc12
21,< 1000,O=c1[nH][nH]c2ccc(-c3nnc(C4CCCCC4)c(Nc4n[nH]c5ccc(F)cc45)n3)c(C(F)(F)F)c12
22,< 1000,Cc1cc(Nc2cc(COc3ccc4c(=O)[nH][nH]c4c3)nc3c2CCCCC3)n[nH]1
23,< 1000,O=c1[nH][nH]c2cc(Nc3nc(Nc4n[nH]c5ncccc45)c4ccccc4n3)ccc12
24,< 1000,O=C(CCNc1ccc2c(=O)[nH][nH]c2c1)Nc1nccnn1

row,Ki [nM],Compound
1,< 1000,O=c1[nH][nH]c2ccc(-c3cnnc(Nc4cc(C5CCCC5)[nH]n4)n3)cc12
2,< 1000,CCc1cc(Nc2cc(C)[nH]n2)nc(COc2ccc3[nH][nH]c(=O)c3c2)n1
3,< 1000,O=c1[nH][nH]c2ccc(-c3nc(Nc4n[nH]c5ccccc45)cc(-c4cnc[nH]4)n3)c(C(F)(F)F)c12
4,< 1000,O=C(CCSc1ccc2c(=O)[nH][nH]c2c1)Nc1nccnn1
5,< 1000,O=c1[nH][nH]c2cc(Sc3cc(Nc4cc(C5CC5)[nH]n4)c4ccccc4n3)ccc12
6,< 1000,Cn1cnc(NCCC(=O)Cc2ccc3c(=O)[nH][nH]c3c2)c1
7,< 1000,O=c1[nH][nH]c2cc(Cl)c(-c3cc(Nc4n[nH]c5ccccc45)c4c(n3)CCCC4)cc12
8,< 1000,Cc1cc(Nc2cc(N3CCN(C)CC3)nc(Sc3ccc4c(=O)[nH][nH]c4c3)n2)n[nH]1
9,< 1000,O=c1[nH][nH]c2cc(CCCC(Nc3ccccn3)c3ccccc3)ccc12 (configuration not stated)
10,< 1000,O=c1[nH][nH]c2cc(NCCONc3nccnn3)ccc12
11,< 1000,Cc1cc(Nc2nc(Sc3ccc4c(=O)[nH][nH]c4c3)nc3cc([N+](=O)[O-])ccc23)n[nH]1
12,< 1000,Cc1cnc(NCCONc2ccc3c(=O)[nH][nH]c3c2)s1
13,< 1000,O=c1[nH][nH]c2ccc(-c3nc4c(c(Nc5n[nH]c6c(F)cccc56)n3)CCCCCC4)c(C(F)(F)F)c12
14,< 1000,Cc1cc(Nc2nc(Nc3ccc4c(=O)[nH][nH]c4c3)nc3ccc(I)cc23)n[nH]1
15,< 1000,O=c1[nH][nH]c2ccc(-c3nc(Nc4n[nH]c5ccccc45)cc(-c4ccccn4)n3)c(C(F)(F)F)c12
16,< 1000,Cn1cnc(NC(=O)CCOc2ccc3c(=O)[nH][nH]c3c2)c1
17,< 1000,O=c1[nH][nH]c2cc(NCCONc3ccccn3)ccc12
18,< 1000,COCCNc1cc(Nc2cc(C)[nH]n2)nc(SCc2ccc3c(=O)[nH][nH]c3c2)n1
19,< 1000,Cn1cnc(NC2CCCC(C(C)(C)c3ccc4c(=O)[nH][nH]c4c3)C2)c1 (configuration not stated)
20,< 1000,Cc1cc(Nc2cc(-c3cc4c(=O)[nH][nH]c4cc3Cl)nc3c2CCCC3)n[nH]1
21,< 1000,Cn1cnc(NC(=O)CCSc2ccc3c(=O)[nH][nH]c3c2)c1
22,< 1000,Cn1cnc(NC2CCCC(Sc3ccc4c(=O)[nH][nH]c4c3)C2)c1 (configuration not stated)
23,< 1000,O=C(CCOc1ccc2c(=O)[nH][nH]c2c1)Nc1cc(C2CC2)[nH]n1
